Literature values, collected in patent US20100221334A1, “COMPOSITIONS INCLUDING LEUKOTRIENE ANTAGONISTS AND NSAIDS AND METHODS OF USING THE SAME” (priority 2007, published 2010).

conditions: general statement on long-acting NSAIDs; species not given

Structure (SMILES)	pharmacokinetic half-life
CC(C(=O)O)c1ccc(-c2ccccc2)c(F)c1 (stereo not shown) [flurbiprofen]	about 6 hours
CCc1cccc2c3c([nH]c12)C(CC)(CC(=O)O)OCC3 (stereo not shown) [etodolac]	about 7 hours
O=C(c1ccccc1)c1ccc2n1CCC2C(=O)O (stereo not shown) [ketorolac]	8 to 9 h
Cc1cccc(Nc2ccccc2C(=O)O)c1C [mefenamic acid]	up to 4 hours
